Reference: paper PMC6257796, “Effects of Eupatilin and Jaceosidin on Cytochrome P450 Enzyme Activities in Human Liver Microsomes” (Molecules, 2010)

Columns and labels:
Assay type in all cases: in vitro ADME
CYP2A6 = molecular target: T1, CYP2A6 (Homo sapiens, UniProt P11509); test: Cocktail probe assay in pooled human liver microsomes: coumarin 7-hydroxylation (IC50); details: for IC50, coumarin 7-hydroxylation (CYP2A6): pooled human liver microsomes, 2.5 μM coumarin
T1 construct: pooled human liver microsomes (0.25 mg/mL); tissue BD Gentest Co. H161; host or cells: pooled human liver microsomes
T1 sequence (P11509 1-494): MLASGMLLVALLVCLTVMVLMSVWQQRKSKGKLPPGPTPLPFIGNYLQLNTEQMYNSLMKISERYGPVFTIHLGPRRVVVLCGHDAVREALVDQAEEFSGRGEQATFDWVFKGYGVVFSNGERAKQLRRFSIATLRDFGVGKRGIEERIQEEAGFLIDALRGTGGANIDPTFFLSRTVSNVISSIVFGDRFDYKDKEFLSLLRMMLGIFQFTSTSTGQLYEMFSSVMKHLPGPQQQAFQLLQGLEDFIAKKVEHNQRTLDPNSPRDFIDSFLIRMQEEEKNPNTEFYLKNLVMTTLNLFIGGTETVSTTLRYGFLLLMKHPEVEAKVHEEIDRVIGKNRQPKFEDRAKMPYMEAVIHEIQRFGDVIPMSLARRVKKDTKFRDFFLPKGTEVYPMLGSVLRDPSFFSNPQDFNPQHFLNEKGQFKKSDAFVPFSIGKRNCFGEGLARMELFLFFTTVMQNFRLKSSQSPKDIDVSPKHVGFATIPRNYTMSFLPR
Protocol: (§1) The inhibitory potencies (IC50 values) of eupatilin and jaceosidin were determined with CYP assays in the presence and absence of eupatilin and jaceosidin (final concentrations of 0.1−100 μM with acetonitrile concentration of less than 0.5% v/v) using pooled human liver microsomes. Phenacetin O-deethylase, coumarin 7-hydroxylase, amodiaquine N-deethylase, diclofenac hydroxylase, [S]-mephenytoin 4'-hydroxylase, bufuralol 1'-hydroxylase, and midazolam 1'-hydroxylase activities were determined as probe activities for CYP1A2, CYP2A6, CYP2C8, CYP2C9, CYP2C19, CYP2D6, and CYP3A, respectively, using cocktail incubation and tandem mass spectrometry. The incubation mixtures were prepared in a total volume of 200 μL as follows: pooled human liver microsomes (0.25 mg/mL), 1.3 mM NADPH, 3.3 mM MgCl2, 50 mM potassium phosphate buffer (pH 7.4), and a cocktail of probe substrates and various concentrations of eupatilin or jaceosidin (0.1−100 μM). […] After a 3 min preincubation at 37 °C, the reactions were initiated by adding NADPH and incubated for 20 min at 37 °C with shaking in a water bath. After incubation, the reaction was stopped by placing the tubes on ice and adding 100 μL of ice-cold acetonitrile containing internal standards (0.5 μg/mL [^13C,^15N]-acetaminophen for acetaminophen and N-desethylamodiaquine, 0.5 μg/mL [^2H5]-7-hydroxycoumarin for 7-hydroxycoumarin, 2.0 μg/mL [^13C6]-4-hydoxydiclofenac for 4-hydoxydiclofenac, 0.5 μg/mL [^2H3]-4'-hydoxymephenytoin for 4-hydoxymephenytoin and 1'-hydroxymidazolam, and 0.5 μg/mL [^2H7]-1'-hydroxybufuralol for 1'-hydroxybufuralol). The incubation mixtures were then centrifuged at 10,000× g for 5 min. All incubations were performedin triplicate.
(§2) To evaluate the effect of preincubation on inhibitory potency, eupatilin and jaceosidin (0.1−100 μM) were preincubated for 30 min with NADPH, buffer, and microsomes before the addition of the CYP probe substrates. The reaction was started by addition of the cocktail of probe substrates.
(§3) All seven metabolites produced from the cocktail of CYP isoform-specific substrates were simultaneously determined by LC/MS/MS. The system consisted of a tandem quadrupole mass spectrometer (TSQ Quantum Access, ThermoFisher Scientific, CA, USA) coupled with a Nanospace SI-2 LC system. The separation was performed on an Atlantis dC18 column (5 μm, 2.1 mm i.d. × 100 mm, Waters, Waltham, MA, USA) using the gradient elution of a mixture of 5% methanol in 0.1% formic acid (mobile phase A) and 95% methanol in 0.1% formic acid (mobile phase B) at a flow rate of 0.25 mL/min: 10% mobile phase B for 1 min, 10% to 95% mobile phase B for 1 min, 95% mobile phase B for 5 min. The column and autosampler temperatures were 50 °C and 4 °C, respectively. After 1.5 min, the LC eluant was diverted from waste to the mass spectrometer that was fitted with an electrospray ionization (ESI) source and operated in the positive ion mode. The ESI source settings for the ionization of the metabolites were as follows: electrospray voltage, 5.0 kV; vaporizer temperature, 420 °C; capillary temperature 360 °C; sheath gas pressure, 35 psi; auxiliary gas pressure, 10 psi. Quantification was performed by selected reaction monitoring (SRM) of the [M+H]^+ ion and the related product ion for each metabolite. The analytical data were processed using Xcalibur® software (ThermoFisher Scientific).
(§4) The IC50 values (concentration of inhibitor causing 50% inhibition of the original enzyme activity) were calculated using WinNonlin software, a non-linear regression analysis program (Pharsight, Mountain View, CA, USA). The apparent kinetic parameters for inhibitory potential (Ki values) were estimated from the fitted curves using Enzyme Kinetics Ver. 1.3 program (Systat Software Inc., San Jose, CA, USA).

CYP1A2 [1] = molecular target: T2, CYP1A2 (Homo sapiens, UniProt P05177); test: Kinetic analysis (Ki, inhibition type) in human liver microsomes: phenacetin O-deethylation; details: pooled human liver microsomes
T2 construct: pooled human liver microsomes (0.25 mg/mL); tissue BD Gentest Co. H161; host or cells: pooled human liver microsomes
T2 sequence (P05177 1-516): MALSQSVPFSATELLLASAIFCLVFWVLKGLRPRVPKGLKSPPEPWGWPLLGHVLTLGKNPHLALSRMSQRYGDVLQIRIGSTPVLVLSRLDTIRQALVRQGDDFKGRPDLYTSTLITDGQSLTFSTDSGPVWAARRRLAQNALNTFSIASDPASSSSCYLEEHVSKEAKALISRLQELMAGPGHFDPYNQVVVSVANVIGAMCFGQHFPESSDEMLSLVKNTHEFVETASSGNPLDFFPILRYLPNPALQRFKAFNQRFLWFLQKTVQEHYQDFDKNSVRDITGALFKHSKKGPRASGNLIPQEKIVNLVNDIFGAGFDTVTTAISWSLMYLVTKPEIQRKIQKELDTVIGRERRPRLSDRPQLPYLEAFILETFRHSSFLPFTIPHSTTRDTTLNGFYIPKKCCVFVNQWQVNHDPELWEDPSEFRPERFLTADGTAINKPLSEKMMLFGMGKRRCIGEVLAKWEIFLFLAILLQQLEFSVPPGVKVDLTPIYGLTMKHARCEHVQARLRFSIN
Protocol: (§5) The Ki values and inhibition types (competitive, noncompetitive, uncompetitive, or mixed) were determined for eupatilin and jaceosidin using Lineweaver plots, Dixon plots, and secondary reciprocal plots.
(§6) The reactions were initiated by addition of NADPH at 37 °C and stopped after 15 min by placing the incubation tubes on ice and adding 100 μL of ice-cold methanol containing an internal standard. The incubation mixtures were centrifuged at 10,000' g for 5 min, and aliquots (5 μL) of the supernatants were analyzed by liquid chromatography/tandem mass spectrometry (LC/MS/MS).
as §3, §4

CYP2C9 [2] = molecular target: T3, CYP2C9 (Homo sapiens, UniProt P11712); test: Cocktail probe assay in pooled human liver microsomes: diclofenac 4-hydroxylation (IC50); details: 10 μM diclofenac
T3 construct: pooled human liver microsomes (0.25 mg/mL); tissue BD Gentest Co. H161; host or cells: pooled human liver microsomes
T3 sequence (P11712 whole entry): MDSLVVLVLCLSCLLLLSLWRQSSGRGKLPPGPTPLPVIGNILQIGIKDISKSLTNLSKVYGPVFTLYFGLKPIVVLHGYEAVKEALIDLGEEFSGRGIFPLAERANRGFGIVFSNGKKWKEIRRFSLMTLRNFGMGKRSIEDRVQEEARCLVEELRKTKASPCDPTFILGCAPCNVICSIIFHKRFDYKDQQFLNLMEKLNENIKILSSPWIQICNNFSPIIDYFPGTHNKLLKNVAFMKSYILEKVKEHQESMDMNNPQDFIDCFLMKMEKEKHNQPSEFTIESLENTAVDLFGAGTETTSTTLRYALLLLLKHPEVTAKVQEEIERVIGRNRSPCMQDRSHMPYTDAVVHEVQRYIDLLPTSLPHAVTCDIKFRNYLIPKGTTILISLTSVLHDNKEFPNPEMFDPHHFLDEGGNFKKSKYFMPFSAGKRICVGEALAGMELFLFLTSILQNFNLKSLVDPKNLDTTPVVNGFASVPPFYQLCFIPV
Protocol: as §1, §2
(§7) All seven metabolites produced from the cocktail of CYP isoform-specific substrates were simultaneously determined by LC/MS/MS. The system consisted of a tandem quadrupole mass spectrometer (TSQ Quantum Access, ThermoFisher Scientific, CA, USA) coupled with a Nanospace SI-2 LC system. The separation was performed on an Atlantis dC18 column (5 μm, 2.1 mm i.d. × 100 mm, Waters, Waltham, MA, USA) using the gradient elution of a mixture of 5% methanol in 0.1% formic acid (mobile phase A) and 95% methanol in 0.1% formic acid (mobile phase B) at a flow rate of 0.25 mL/min: 10% mobile phase B for 1 min, 10% to 95% mobile phase B for 1 min, 95% mobile phase B for 5 min. […] Quantification was performed by selected reaction monitoring (SRM) of the [M+H]^+ ion and the related product ion for each metabolite. […]

CYP2C8 [3] = molecular target: T4, CYP2C8 (Homo sapiens, UniProt P10632); test: Kinetic analysis (Ki, inhibition type) in human liver microsomes: amodiaquine N-deethylation; details: pooled human liver microsomes
T4 construct: pooled human liver microsomes (0.25 mg/mL); tissue BD Gentest Co. H161; host or cells: pooled human liver microsomes
T4 sequence (P10632 1-490): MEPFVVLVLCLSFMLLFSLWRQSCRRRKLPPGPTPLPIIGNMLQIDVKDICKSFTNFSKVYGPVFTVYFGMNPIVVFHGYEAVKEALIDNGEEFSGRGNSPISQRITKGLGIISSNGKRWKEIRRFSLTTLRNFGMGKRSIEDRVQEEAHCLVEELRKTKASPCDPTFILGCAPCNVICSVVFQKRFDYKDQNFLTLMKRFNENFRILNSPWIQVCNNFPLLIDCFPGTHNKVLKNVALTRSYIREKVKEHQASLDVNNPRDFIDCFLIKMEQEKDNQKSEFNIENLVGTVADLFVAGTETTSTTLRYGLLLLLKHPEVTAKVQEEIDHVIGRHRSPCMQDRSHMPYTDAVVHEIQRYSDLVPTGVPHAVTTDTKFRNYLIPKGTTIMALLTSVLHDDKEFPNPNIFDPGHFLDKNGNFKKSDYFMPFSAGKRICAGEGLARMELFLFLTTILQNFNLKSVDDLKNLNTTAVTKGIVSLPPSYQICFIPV
Protocol: as §5, §6, §3, §4

CYP2C9 [4] = molecular target: T3, CYP2C9; test: Kinetic analysis (Ki, inhibition type) in human liver microsomes: diclofenac 4-hydroxylation; details: pooled human liver microsomes
Protocol: as §5, §6, §3, §4

CYP2D6 [5] = molecular target: T5, CYP2D6 (Homo sapiens, UniProt P10635); test: Cocktail probe assay in pooled human liver microsomes: bufuralol 1'-hydroxylation (IC50); details: 5.0 μM bufuralol
T5 construct: pooled human liver microsomes (0.25 mg/mL); tissue BD Gentest Co. H161; host or cells: pooled human liver microsomes
T5 sequence (P10635 whole entry): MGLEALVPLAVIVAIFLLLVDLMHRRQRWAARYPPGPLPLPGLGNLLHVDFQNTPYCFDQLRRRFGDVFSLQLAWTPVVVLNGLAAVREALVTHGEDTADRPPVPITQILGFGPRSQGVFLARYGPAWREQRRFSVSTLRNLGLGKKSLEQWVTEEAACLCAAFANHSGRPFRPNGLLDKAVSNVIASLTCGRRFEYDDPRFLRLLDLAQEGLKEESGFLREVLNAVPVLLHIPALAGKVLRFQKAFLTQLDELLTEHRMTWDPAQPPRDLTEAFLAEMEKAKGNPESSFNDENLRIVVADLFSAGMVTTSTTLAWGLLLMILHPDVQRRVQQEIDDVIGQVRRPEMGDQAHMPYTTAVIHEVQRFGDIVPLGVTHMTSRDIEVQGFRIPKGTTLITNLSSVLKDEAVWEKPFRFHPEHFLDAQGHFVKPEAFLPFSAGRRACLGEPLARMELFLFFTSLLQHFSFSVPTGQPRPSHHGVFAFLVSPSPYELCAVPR
Protocol: as §1, §2, §7

CYP3A = test: Cocktail probe assay in pooled human liver microsomes: midazolam 1'-hydroxylation (IC50); details: for IC50, midazolam 1'-hydroxylation (CYP3A): pooled human liver microsomes, 2.5 μM midazolam
Protocol: as §1, §2, §3, §4

CYP2C8 [6] = molecular target: T4, CYP2C8; test: Cocktail probe assay in pooled human liver microsomes: amodiaquine N-deethylation (IC50); details: 2.0 μM amodiaquine, no preincubation
Protocol: as §1, with “After incubation, the reaction was stopped by placing the tubes on ice and adding 100 μL of ice-cold acetonitrile containing internal standards (0.5 μg/mL [^13C,^15N]-acetaminophen for acetaminophen and N-desethylamodiaquine, 0.5 μg/mL [^2H5]-7-hydroxycoumarin for 7-hydroxycoumarin, 2.0 μg/mL [^13C6]-4-hydoxydiclofenac for 4-hydoxydiclofenac, 0.5 μg/mL [^2H3]-4'-hydoxymephenytoin for 4-hydoxymephenytoin and 1'-hydroxymidazolam, and 0.5 μg/mL [^2H7]-1'-hydroxybufuralol for 1'-hydroxybufuralol). The incubation mixtures were then centrifuged at 10,000× g for 5 min. All incubations were performedin triplicate.” left out
All seven metabolites produced from the cocktail of CYP isoform-specific substrates were simultaneously determined by LC/MS/MS. […] Quantification was performed by selected reaction monitoring (SRM) of the [M+H]^+ ion and the related product ion for each metabolite. […]

CYP2D6 [7] = molecular target: T5, CYP2D6; test: Kinetic analysis (Ki, inhibition type) in human liver microsomes: bufuralol 1'-hydroxylation; details: pooled human liver microsomes
Protocol: as §5, §6, §3, §4

CYP2C19 [8] = molecular target: T6, CYP2C19 (Homo sapiens, UniProt P33261); test: Cocktail probe assay in pooled human liver microsomes: [S]-mephenytoin 4'-hydroxylation (IC50); details: 50 μM [S]-mephenytoin
T6 construct: pooled human liver microsomes (0.25 mg/mL); tissue BD Gentest Co. H161; host or cells: pooled human liver microsomes
T6 sequence (P33261 whole entry): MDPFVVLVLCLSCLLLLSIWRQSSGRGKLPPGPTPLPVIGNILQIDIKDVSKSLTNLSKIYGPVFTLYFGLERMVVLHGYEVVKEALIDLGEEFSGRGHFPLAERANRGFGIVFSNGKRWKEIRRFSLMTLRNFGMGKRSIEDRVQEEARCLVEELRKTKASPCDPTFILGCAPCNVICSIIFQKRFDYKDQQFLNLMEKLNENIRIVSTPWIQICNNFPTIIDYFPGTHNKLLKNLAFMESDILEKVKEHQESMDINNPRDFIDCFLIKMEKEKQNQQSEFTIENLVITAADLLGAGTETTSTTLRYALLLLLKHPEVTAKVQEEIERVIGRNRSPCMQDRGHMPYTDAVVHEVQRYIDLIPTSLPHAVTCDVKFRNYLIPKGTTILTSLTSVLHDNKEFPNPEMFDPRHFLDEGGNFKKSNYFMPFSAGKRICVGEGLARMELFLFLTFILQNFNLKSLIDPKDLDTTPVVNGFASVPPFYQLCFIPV
Protocol: as §1, §2, §7

CYP2C19 [9] = molecular target: T6, CYP2C19; test: Kinetic analysis (Ki, inhibition type) in human liver microsomes: [S]-mephenytoin 4'-hydroxylation; details: pooled human liver microsomes; for Inhibition type, S-mephenytoin 4'-hydroxylation (CYP2C19): Lineweaver, Dixon and secondary reciprocal plots
Protocol: as §5, §6, §3, §4

CYP1A2 [10] = molecular target: T2, CYP1A2; test: Cocktail probe assay in pooled human liver microsomes: phenacetin O-deethylation (IC50); details: 50 μM phenacetin
Protocol: as §1, §2, §7

[11] = with 30 min preincubation in presence of NADPH
[12] = Lineweaver, Dixon and secondary reciprocal plots

- Inhibition of CYP2A6-catalyzed coumarin 7-hydroxylation at the highest concentration tested (CYP2A6; 100 μM, human liver microsomes): negligible inhibition
- IC50, coumarin 7-hydroxylation (CYP2A6) (CYP2A6; no preincubation): No inhibition
- IC50, coumarin 7-hydroxylation (CYP2A6) (CYP2A6; [11]): No inhibition
- Ki (CYP1A2 [1]; 10-100 μM phenacetin): 2.3 ± 0.18 µM
- Inhibition type, phenacetin O-deethylation (CYP1A2) (CYP1A2 [1]; [12]): competitive
- IC50 (CYP2C9 [2]; no preincubation): 4.1 ± 0.49 µM
- IC50 (CYP2C9 [2]; [11]): 4.9 ± 0.91 µM
- Ki (CYP2C8 [3]; 0.5-5 μM amodiaquine): 102 ± 8.9 µM
- Inhibition type, amodiaquine N-deethylation (CYP2C8) (CYP2C8 [3]; [12]): competitive
- Ki (CYP2C9 [4]; 1-50 μM diclofenac): 1.6 ± 0.17 µM
- Inhibition type, diclofenac 4-hydroxylation (CYP2C9) (CYP2C9 [4]; [12]): mixed
- IC50 (CYP2D6 [5]; no preincubation): 58.7 ± 7.6 µM
- IC50 (CYP2D6 [5]; [11]): 79.1 ± 7.5 µM
- Inhibition of CYP3A4-catalyzed midazolam 1'-hydroxylation at the highest concentration tested (CYP3A; 100 μM, human liver microsomes): negligible inhibition
- IC50, midazolam 1'-hydroxylation (CYP3A) (CYP3A; no preincubation): No inhibition
- IC50, midazolam 1'-hydroxylation (CYP3A) (CYP3A; [11]): No inhibition
- IC50 (CYP2C8 [6]): > 100 µM
- Ki (CYP2D6 [7]; 0.5-5 μM bufuralol): 94.6 ± 5.8 µM
- Inhibition type, bufuralol 1'-hydroxylation (CYP2D6) (CYP2D6 [7]; [12]): competitive
- IC50 (CYP2C19 [8]; no preincubation): 48.1 ± 12 µM
- IC50 (CYP2C19 [8]; [11]): 57.7 ± 16.3 µM
- Ki (CYP2C19 [9]; 10-100 μM [S]-mephenytoin): 28.7 ± 3.6 µM
- Inhibition type, S-mephenytoin 4'-hydroxylation (CYP2C19) (CYP2C19 [9]): mixed
- Inhibition type, S-mephenytoin 4'-hydroxylation (CYP2C19) (CYP2C19 [9]; listed as Eupatilin): mixed-type
- IC50 (CYP1A2 [10]; no preincubation): 9.4 ± 1.5 µM
- IC50 (CYP1A2 [10]; [11]): 11.8 ± 1.3 µM
Compound: COc1ccc(-c2cc(=O)c3c(O)c(OC)c(O)cc3o2)cc1OC [eupatilin, 2-(3,4-dimethoxyphenyl)-5,7-dihydroxy-6-methoxychromen-4-one]
